Laboratory results: article PMC3038857, “Using Nuclear Receptor Activity to Stratify Hepatocarcinogens” (PLoS ONE, 2011)

Assays:
Mouse Liver [1] = conditions: chronic study, mouse liver; ref ToxRefDB; cited from earlier work
PXR (NR1I2) [2] = biological target: T1, PXR (NR1I2) (Homo sapiens, UniProt O75469); assay: ATG_PXRE_CIS: Factorial reporter gene assay (HepG2); assay type: cell-based; design: endogenous in cells; host or cells: HepG2; conditions: HepG2 reporter
T1 sequence (O75469 1-434): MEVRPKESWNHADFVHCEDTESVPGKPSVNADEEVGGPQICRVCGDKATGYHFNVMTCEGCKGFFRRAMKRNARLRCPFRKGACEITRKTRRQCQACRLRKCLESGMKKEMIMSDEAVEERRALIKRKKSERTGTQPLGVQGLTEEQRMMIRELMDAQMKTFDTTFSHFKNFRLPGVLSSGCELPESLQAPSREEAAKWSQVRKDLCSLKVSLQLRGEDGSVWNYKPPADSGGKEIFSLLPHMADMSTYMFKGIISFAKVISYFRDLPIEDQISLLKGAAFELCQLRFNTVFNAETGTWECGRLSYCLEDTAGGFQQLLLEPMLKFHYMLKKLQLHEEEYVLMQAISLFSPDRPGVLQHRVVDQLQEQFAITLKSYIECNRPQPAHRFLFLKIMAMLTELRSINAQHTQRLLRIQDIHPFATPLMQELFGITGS
In short: (§1)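 Seven concentrations per chemical, three-fold dilutions down from the MTC, were tested in HepG2 hepatoma cells. Those cells carried a multiple reporter transcription unit library, read either as cis transcription-factor-site reporters or as a trans mammalian one-hybrid panel for nuclear receptors.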

ABCB1 = assay: CLZD_ABCB1: Change in expression of ABCB1 (primary human hepatocytes); assay type: cell-based; conditions: 24 hr
Description: This is a collection of multiplexed gene expression assays focused on Phase I and II xenobiotic metabolizing enzymes and transporters. Human primary cell cultures were treated with chemicals at 5 concentrations (0.004-40 [drawing 42] M) for 6, 24 and 48 hr. Concentration- and time-response profiles of chemicals were measured by the expression of key nuclear receptor target genes, activities of CYP1A enzymes (EROD), and cell morphology. Fourteen gene targets were monitored by quantitative nuclease protection assay including: six representative cytochrome P-450 genes, four hepatic transporters, three Phase II conjugating enzymes, and one endogenous metabolism gene involved in cholesterol synthesis. The target genes associated with nuclear receptor pathways are as follows: [drawing 43] and [drawing 44] with [drawing 45]; [drawing 46] , [drawing 47] , [drawing 48] , [drawing 49] , [drawing 50] and [drawing 51] with [drawing 52]; [drawing 53] , [drawing 54] , [drawing 55] and [drawing 56] with [drawing 57]; [drawing 58] with [drawing 59]; and [drawing 60] with [drawing 61] . Assays were run in primary human hepatocyte cultures by CellzDirect Invitrogen Inc. (Durham, NC), in collaboration with EPA.
Multiplexed Gene Expression in Human Primary Hepatocytes: This is a collection of multiplexed gene expression assays focused on Phase I and II metabolic enzymes and transporters. […] Fourteen gene targets were monitored by quantitative nuclease protection assay: six representative cytochrome P450 genes, four hepatic transporters, three Phase II conjugating enzymes, and one endogenous metabolism gene involved in cholesterol synthesis. Cells were exposed at 5 concentrations (0.004-40 µM) for 6, 24 or 48 hr. Gene targets are sentinels for five nuclear receptor signaling pathways: AhR, CAR, PXR, FXR, and PPARα. All gene are associated with nuclear receptor pathways: CYP1A1 and CYP1A2 with AHR; ABCB1, ABCG2, CYP2B6, CYP2C9, CYP2C19 and UGT1A1 with CAR; CYP3A4, GSTA2, SLCO1B1 and SULT2A1 with PXR; HMGCS2 with PPARA; and ABCB11 with FXR. […] Detailed description of the methods, data and analysis methods for this dataset will be presented in a separate publication.

PXR (NR1I2) [3] = biological target: T1, PXR (NR1I2); assay: NVS_NR_hPXR: Human PXR Fluormone PXR (SXR) green (cell-free HTS); assay type: binding
In short: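 Responses were normalized to same-plate solvent controls as percent of neutral control. AC50 values came from Hill-equation fits of concentration-response curves.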

PXR (NR1I2) [4] = biological target: T1, PXR (NR1I2); assay: ATG_PXR_TRANS: Factorial reporter gene assay (HepG2); assay type: cell-based; design: endogenous in cells; host or cells: HepG2; conditions: HepG2 reporter
In short: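 HepG2 cells transfected with multiplexed reporter libraries: cis-acting binding-site reporters (CIS) and a one-hybrid nuclear-receptor trans system (TRANS). Chemicals tested at seven concentrations, starting at the maximum tolerated concentration with three-fold serial dilutions.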

Mouse Liver [5] = conditions: chronic study, mouse liver; ref ToxRefDB; cited from earlier work; remark: listed apart in the source
Mouse Liver [6] = conditions: chronic study, mouse liver; ref ToxRefDB; cited from earlier work; remark: listed apart in the source
PXR Human (NR1I2) = biological target: T2, PXR Human (NR1I2) (Homo sapiens, UniProt O75469); assay: NCGC_PXR_Agonist_human: GAL4 BLAM Reporter gene assay: PXR Human; assay type: cell-based; conditions: agonist mode
T2 sequence (O75469 146-434 limits assumed): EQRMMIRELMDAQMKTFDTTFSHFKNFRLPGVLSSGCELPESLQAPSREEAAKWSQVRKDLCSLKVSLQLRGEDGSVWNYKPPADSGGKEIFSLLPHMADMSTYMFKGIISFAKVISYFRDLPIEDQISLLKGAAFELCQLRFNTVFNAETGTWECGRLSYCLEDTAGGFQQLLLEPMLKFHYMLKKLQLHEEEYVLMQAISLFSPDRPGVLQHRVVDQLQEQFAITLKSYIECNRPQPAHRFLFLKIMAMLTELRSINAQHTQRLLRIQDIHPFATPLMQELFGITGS
Description: These assays measure binding constants and enzyme inhibition values for nuclear receptors. The targets include [drawing 67] , [drawing 68] , [drawing 69] , [drawing 70] , [drawing 71] , [drawing 72] , [drawing 73] , [drawing 74] , [drawing 75] and [drawing 76] . Each of the nuclear receptor targets was measured in agonist mode. Assays were run at the NIH Chemical Genomics Center (Rockville, MD).
Cell-based HTS Assays: These assays measuring binding constants and enzyme inhibition values for nuclear receptors. The targets include AR, ER, FXR, LXR, PPARα, PPARδ, PPARγ, RXRα, RXRβ and PXR. Each of the nuclear receptor targets was measured in both agonist and antagonist mode, but the antagonist data is still undergoing analysis due to possible interference between cytotoxicity and assay activity, so antagonist mode data were not used in the present analysis. Assays were run at the NIH Chemical Genomics Center (Rockville, MD) as part of the Tox21 collaboration. […] The R^2 was required to be ≥0.5. Values where only the highest concentration exceeded 50% activity were excluded to eliminate weak or false positives. Detailed description of the methods, data and analysis methods for this dataset will be presented in a separate publication.

CYP2B6 = assay: CLZD_CYP2B6: Change in expression of CYP2B6 (primary human hepatocytes); assay type: cell-based; conditions: 24 hr
In short: (§2)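 Five-point concentration series (0.004-40 µM) applied to primary human hepatocytes; 6/24/48 hr timepoints; transcript quantified by multiplexed nuclease protection.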

Rat Liver [7] = conditions: chronic study, rat liver; ref ToxRefDB; cited from earlier work
CYP3A4 = assay: CLZD_CYP3A4: Change in expression of CYP3A4 (primary human hepatocytes); assay type: cell-based; conditions: 24 hr
In short: as §2

Rat Liver [8] = conditions: chronic study, rat liver; ref ToxRefDB; cited from earlier work; remark: listed apart in the source
Rat Liver [9] = conditions: chronic study, rat liver; ref ToxRefDB; cited from earlier work; remark: listed apart in the source
[10] = biological target: T3, PPARG (peroxisome proliferator-activated receptor gamma) (Homo sapiens, UniProt P37231); assay: ATG_PPARg_TRANS: Factorial reporter gene assay (HepG2); assay type: cell-based; conditions: HepG2 reporter
T3 construct: expressed in transfected cells; host or cells: HepG2
T3 sequence (P37231 1-505): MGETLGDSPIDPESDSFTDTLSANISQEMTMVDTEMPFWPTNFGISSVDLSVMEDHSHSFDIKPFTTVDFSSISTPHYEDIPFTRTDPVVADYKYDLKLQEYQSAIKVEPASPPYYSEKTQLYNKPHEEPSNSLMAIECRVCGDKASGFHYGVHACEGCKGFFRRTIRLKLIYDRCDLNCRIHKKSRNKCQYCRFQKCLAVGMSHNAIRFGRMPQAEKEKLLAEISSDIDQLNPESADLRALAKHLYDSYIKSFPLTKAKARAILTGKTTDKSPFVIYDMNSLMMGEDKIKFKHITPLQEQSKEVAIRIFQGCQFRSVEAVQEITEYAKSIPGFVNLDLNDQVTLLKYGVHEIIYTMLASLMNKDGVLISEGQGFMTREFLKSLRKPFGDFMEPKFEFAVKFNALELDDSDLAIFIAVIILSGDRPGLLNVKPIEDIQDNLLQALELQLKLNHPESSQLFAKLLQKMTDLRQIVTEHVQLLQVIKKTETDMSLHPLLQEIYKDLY
In short: as §1

LXRb (NR1H2) = biological target: T4, LXRb (NR1H2) (Homo sapiens, UniProt P55055); assay: ATG_LXRb_TRANS: Factorial reporter gene assay (HepG2); assay type: cell-based; conditions: HepG2 reporter
T4 construct: expressed in transfected cells; host or cells: HepG2
T4 sequence (P55055 1-460): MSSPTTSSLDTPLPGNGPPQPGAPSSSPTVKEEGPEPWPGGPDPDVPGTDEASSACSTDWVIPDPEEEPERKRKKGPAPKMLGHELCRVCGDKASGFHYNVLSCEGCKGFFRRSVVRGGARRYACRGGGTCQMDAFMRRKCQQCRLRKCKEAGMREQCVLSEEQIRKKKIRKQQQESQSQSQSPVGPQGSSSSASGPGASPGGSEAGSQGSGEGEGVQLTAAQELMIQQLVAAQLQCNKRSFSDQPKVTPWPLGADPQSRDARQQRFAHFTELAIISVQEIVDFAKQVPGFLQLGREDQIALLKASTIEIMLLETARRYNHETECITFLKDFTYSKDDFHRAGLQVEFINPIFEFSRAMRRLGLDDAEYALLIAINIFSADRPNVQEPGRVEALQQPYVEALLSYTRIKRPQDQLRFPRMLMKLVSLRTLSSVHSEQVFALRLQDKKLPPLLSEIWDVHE
Description: A multiple reporter transcription unit (MRTU) library consisting of 48 transcription factor binding sites was transfected into the HepG2 human liver hepatoma cell line. In addition to the cis-acting reporter genes (CIS), a modification of the approach was used to generate a trans-system (TRANS) with a mammalian one-hybrid assay consisting of an additional 25 MRTU library reporting the activity of nuclear receptor super-family members. […] These assays were performed by Attagene Inc. (Morrisville NC) under contract to EPA.
In addition to the cis-acting reporter genes (CIS), a modification of the approach was used to generate a trans-system (TRANS) with a mammalian one-hybrid assay consisting of an additional 25 MRTU library reporting the activity of nuclear receptor super-family members. […] Chemicals were then tested in the CIS and TRANS assays at seven concentrations starting at the MTC and followed by three-fold serial dilutions. These assays were performed by Attagene Inc. (Morrisville NC) under contract to EPA. Detailed description of the methods, data and analysis methods for this dataset will be presented in a separate publication.

CYP1A2 = assay: CLZD_CYP1A2: Change in expression of CYP1A2 (primary human hepatocytes); assay type: cell-based; conditions: 24 hr
In short: as §2

CYP1A1 = assay: CLZD_CYP1A1: Change in expression of CYP1A1 (primary human hepatocytes); assay type: cell-based; conditions: 24 hr
In short: as §2

For `C#CC(C)(C)NC(=O)c1cc(Cl)cc(Cl)c1` [r265], the CHR_Mouse_Liver_2_PreneoplasticLesion (Mouse Liver [1]) is given as 6, the ATG_PXRE_CIS (PXR (NR1I2) [2]) is given as 4.824 and the CLZD_ABCB1_24 (ABCB1) is given as 5.227. For the same compound, the NVS_NR_hPXR (PXR (NR1I2) [3]) was 4.411, the ATG_PXR_TRANS (PXR (NR1I2) [4]) was 4.409 and the CHR_Mouse_Liver_1_AnyLesion (Mouse Liver [5]) was 6. For the same compound, the CHR_Mouse_Liver_3_NeoplasticLesion (Mouse Liver [6]) was 6, the NCGC_PXR_Agonist_human (PXR Human (NR1I2)) was 4.619 and the CLZD_CYP2B6_24 (CYP2B6) was 5.253. For the same compound, the CHR_Rat_Liver_1_AnyLesion (Rat Liver [7]) was 6, the CLZD_CYP3A4_24 (CYP3A4) was 4.621 and the CHR_Rat_Liver_2_PreneoplasticLesion (Rat Liver [8]) was 0. For the same compound, the CHR_Rat_Liver_3_NeoplasticLesion (Rat Liver [9]) was 0.

`Cc1cc(C)nc(Nc2ccccc2)n1` [r273] showed an ATG_PPARg_TRANS [10] of 4.137, an ATG_LXRb_TRANS (LXRb (NR1H2)) of 4.237 and a CLZD_CYP1A2_24 (CYP1A2) of 4.839. For the same compound, the CLZD_CYP2B6_24 (CYP2B6) was 5.27, the CLZD_CYP1A1_24 (CYP1A1) was 4.775 and the CHR_Rat_Liver_1_AnyLesion (Rat Liver [7]) was 6. For the same compound, the CHR_Rat_Liver_2_PreneoplasticLesion (Rat Liver [8]) was 6 and the CHR_Rat_Liver_3_NeoplasticLesion (Rat Liver [9]) was 0.

For `CC/C(=N\OC/C=C/Cl)C1=C(O)CC(C2CCOCC2)CC1=O` (stereo not shown) [r295], the CHR_Mouse_Liver_2_PreneoplasticLesion (Mouse Liver [1]) is listed as 6, the ATG_LXRb_TRANS (LXRb (NR1H2)) is listed as 4.194 and the CHR_Mouse_Liver_1_AnyLesion (Mouse Liver [5]) is listed as 6. The CHR_Mouse_Liver_3_NeoplasticLesion (Mouse Liver [6]) was 6, the CHR_Rat_Liver_1_AnyLesion (Rat Liver [7]) was 6 and the CHR_Rat_Liver_2_PreneoplasticLesion (Rat Liver [8]) was 6. The CHR_Rat_Liver_3_NeoplasticLesion (Rat Liver [9]) was 6.

For `Cc1[nH]c(=O)n(C(C)(C)C)c(=O)c1Cl` [r296], the CHR_Mouse_Liver_2_PreneoplasticLesion (Mouse Liver [1]) is given as 6, the ATG_LXRb_TRANS (LXRb (NR1H2)) is given as 4.119 and the CHR_Mouse_Liver_1_AnyLesion (Mouse Liver [5]) is given as 6. For the same compound, the CHR_Mouse_Liver_3_NeoplasticLesion (Mouse Liver [6]) was 6, the CLZD_CYP2B6_24 (CYP2B6) was 5.239 and the CLZD_CYP1A1_24 (CYP1A1) was 5.327.
